{
  "source": "patent US6653442B1",
  "about": "“Protegrins” (priority 1993, dated 2003)",
  "key": {"T. pallidum": {"system": "T. pallidum", "experiment": "Treponema pallidum immobilization assay", "format": "cell-based", "experimental": "Bacteriocidal activity against this organism, which is the etiologic agent of syphilis, was also tested. Peptides were evaluated at a series of concentrations of 1.758 μg to 56.25 μg in 90 μl of unheated normal rabbit serum. The serum served as a nutrient for the spirochetes to allow their survival during incubation as well as providing a source of complement. Ten μl of a suspension of T. pallidum containing about 5×10^7/μl organisms was added to each tube and the mixtures with the appropriate peptides were incubated at 34° C. under 95 k N2 and 5% CO2. At time zero, just prior to incubation, 4 hours and 16 hours, 25 randomly selected organisms were examined for the presence or absence of motility. The 50 k immobilizing end point (IE50) was calculated to indicate the concentration needed to immobilize 50% of the spirochetes."}, "[1]": {"target": "human leukocyte cathepsin G (Homo sapiens, UniProt P08311)", "sequence (P08311 21-244)": "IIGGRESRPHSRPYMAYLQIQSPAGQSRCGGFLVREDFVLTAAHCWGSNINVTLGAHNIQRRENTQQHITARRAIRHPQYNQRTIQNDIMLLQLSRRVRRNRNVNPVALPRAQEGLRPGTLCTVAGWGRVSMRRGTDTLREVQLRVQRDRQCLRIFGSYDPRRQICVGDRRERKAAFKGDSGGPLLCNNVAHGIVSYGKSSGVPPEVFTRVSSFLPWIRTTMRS", "format": "in vitro ADME", "conditions": "pH 7"}, "[2]": {"system": "Trichomonas vaginallis strain C1 (ATCC 30001); strains MR and TV", "experiment": "Trichomonas vaginallis exposure assay"}, "pepsin": {"system": "pepsin", "conditions": "4 hours at pH 2.0 with 0.5 μg/ml pepsin, then neutralized"}, "E. coli ML-35P": {"system": "E. coli ML-35P", "experiment": "Radial diffusion assay in agarose gels, E. coli", "format": "cell-based", "experimental": "Aliquots (66 μl) of each fraction were dried by vacuum centrifugation and resuspended in 6.6 μl of 0.01% acetic acid. […] The units of activity in the radial diffusion assay were measured as described; 10 units correspond to a 1 mm diameter clear zone around the sample well."}, "human leukocyte elastase": {"target": "human leukocyte elastase (Homo sapiens, UniProt P08246)", "sequence (P08246 30-267)": "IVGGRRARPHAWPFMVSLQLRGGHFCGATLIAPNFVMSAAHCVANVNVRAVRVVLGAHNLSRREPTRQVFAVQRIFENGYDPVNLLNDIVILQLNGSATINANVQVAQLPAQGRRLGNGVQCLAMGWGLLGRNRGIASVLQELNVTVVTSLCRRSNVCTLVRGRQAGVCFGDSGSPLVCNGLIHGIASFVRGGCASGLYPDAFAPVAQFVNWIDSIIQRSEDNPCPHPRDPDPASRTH", "format": "in vitro ADME", "conditions": "pH 7"}, "C. albicans, strain 820": {"system": "C. albicans, strain 820", "format": "cell-based, Candida albicans"}, "[3]": {"system": "Listeria monocytogenes, strain EGD", "experiment": "Radial diffusion assay in agarose gels, L. monocytogenes", "format": "cell-based", "method": "Aliquots (66 μl) of each fraction were dried by vacuum centrifugation and resuspended in 6.6 μl of 0.01% acetic acid. Five μl samples of this concentrate were tested for antimicrobial activity against E. coliML-3, L. monocytogenes, strain EGD and C. albicans, strain 820, using radiodiffusion and gel overlay techniques as described by Lehrer, R. I. et al. J Immunol Meth (1991) 137:167-173. […] The units of activity in the radial diffusion assay were measured as described; 10 units correspond to a 1 mm diameter clear zone around the sample well. Activity was found in a large number of fractions.\nThe radial diffusion assay in agarose gels described in Example 1 was also used to test the activity of the purified protegrins. FIGS. 4a, 4b and 4c show the results against three test organisms in units described as above.\nThe antimicrobial activity of the linearalized forms was also compared with that of the native protegrins. Both linearalized and cyclic forms of the protegrins tested continue to show antimicrobial activity, although the effectiveness of these peptides as antimicrobials depends on the nature of the target organism and on the test conditions. The antimicrobial activity of native PG-1 and its linearalized form (cam-PG-1) and PG-3 and its linearalized form (cam-PG-3) were tested according to the procedure set forth in Example 1 as described by Lehrer, R. I. et al. J Immunol Meth (1991) 137:167-173.\nUsing standard solid phase techniques, a protegrin having the amino acid sequence of PG-1, but wherein every amino acid is in the D form was prepared. This form of protegrin was tested against E. coli, L. monocytogenes, C. albicans and other microbes in the absence and presence of protease and otherwise as described for the radiodiffusion assay in agarose gels set forth in Example 1.\nThe kite and bullet PG-1 compounds prepared in Example 12 were tested for antimicrobial activity using the radial diffusion assay described in Example 1 as published by Lehrer, R. I. et al., J Immunol Meth (1991) 137:167-173, except that the underlay agars contained […] sodium phosphate buffer with a final pH of 7.4. As described in Example 1, 0.3 mg/ml tripticase soy broth powder and 1% agarose were used as well in the underlay agar. In some cases 100 mM NaCl or RPMI plus 2.5% normal human serum (NHS) was added to the agar."}, "[4]": {"system": "N. gonorrhoeae strains FA 19 and F 62", "experimental": "Nonpiliated transparent variants of strains FA 19 and F 62 were propagated on GCB agar plates containing glucose and iron supplements overnight at 37° C. under 3.8% V/V CO2. These strains were chosen for their adaptability to the assay.\nThe overnight growth is removed from the agar plate and suspended in GCB broth containing supplements and sodium bicarbonate and grown with shaking at 37° C. to mid log phase. The culture is diluted 1:100 in GCB broth to give about 10^6 CFU/ml and serial dilutions were plated onto GCB agar.\nTen μl of each dilution is added to a sterile polystyrene tube containing 90 μl of diluted bacteria and the tubes are shaken at 37° C. for 45 minutes. The contents are serially diluted 1:10 and plated on to GCB agar plates which are incubated in a CO2 incubator. CFU are counted after 24 hours and the log bactericidal activity calculated."}, "Staphylococcus aureus": {"system": "Staphylococcus aureus", "experiment": "Radial diffusion assay in agarose gels, S. aureus", "format": "cell-based"}, "HIVJR-CSF and HIVJR-FL": {"system": "HIVJR-CSF and HIVJR-FL", "experiment": "HIV infection of human peripheral blood mononuclear cells, p24 antigen", "experimental": "Briefly, the mononuclear cell fraction is recovered from normal donor leukopacs from the American Red Cross using a Ficoll-hypaque density gradient. The mononuclear cells are resuspended at 1×10^6 cells per ml in RPMI 1640 medium with 20% fetal bovine serum, 1% penn/strep with fungizone and 0.5% PHA and incubated 24 hours at 37° C. in 5% CO2. The cells are centrifuged, washed and then expanded for 24 hours in growth medium.\nNon-laboratory adapted, cloned HIVJR-CSF and HIVJR-FL were electroporated into the human peripheral blood mononuclear cells prepared as described above. Titers were determined and in general, multiplicities of infection (MOI) of about 4,000 infectious units per cell are used (which corresponds to 25-40 picograms per ml HIV p24 antigen in the supernatant).\nIn the assay, the HIV stocks prepared as above were diluted to the correct MOI and the PBM are added to 24 well plates at a concentration of 2×10^6 per ml. One μl total volume is added to each well. The peptide to be tested is added in growth medium to achieve the final desired concentration. Then the appropriate number of MOI are added. To assay viral growth, 200 μl of supernatant is removed on days 3 and 7 and the concentration of p24 antigen is determined using a commercial assay (Coulter Immunology, Hialeah, Fla.). Controls include duplicate wells containing cells alone, cells plus peptide at 5 μg/ml cells with virus but not peptide and cells with virus in the presence of AZT at 10^−5 M-10^−8 M."}, "[5]": {"system": "lipid polysaccharide (LPS) of E. coli strain 0.55B5", "experiment": "Limulus amebocyte lysate (LAL) test for endotoxin binding", "format": "biochemical", "conditions": "for gel formation in LAL test: LPS 0.05 endotoxin unit/ml"}, "K. pneumoneae 270": {"system": "K. pneumoneae 270", "experiment": "Radial diffusion assay in agarose gels, K. pneumoniae", "format": "cell-based"}, "[6]": {"conditions": "radial diffusion, underlay agar pH 6.5"}},
  "data": [
    {"compound": "CC(C)C[C@H](NC(=O)[C@H](CCCNC(=N)N)NC(=O)CNC(=O)CNC(=O)[C@@H](N)CCCNC(=N)N)C(=O)N[C@H]1CSSC[C@@H](C(=O)N[C@H](C(=O)NCC(=O)N[C@@H](CCCNC(=N)N)C(N)=O)C(C)C)NC(=O)[C@H](C(C)C)NC(=O)[C@@H]2CSSC[C@H](NC(=O)[C@H](Cc3ccc(O)cc3)NC1=O)C(=O)N[C@@H](CCCNC(=N)N)C(=O)N[C@@H](CCCNC(=N)N)C(=O)N[C@@H](CCCNC(=N)N)C(=O)N[C@@H](Cc1ccccc1)C(=O)N2", "note": "[PG-1, R-G-G-R-L-C-Y-C-R-R-R-F-C-V-C-V-G-R]", "values": [
      {"measurement": "Activity against human STD pathogens: Treponema pallidum", "setting": "T. pallidum", "result": "Active"},
      {"measurement": "degradation by human leukocyte cathepsin G", "setting": "[1]", "result": "not degraded"},
      {"measurement": "Activity against human STD pathogens: Trichomonas vaginalis", "setting": "[2]", "result": "Moderately"},
      {"measurement": "growth in Diamond's medium after exposure", "setting": "[2]; strain C1, 50 μg/ml", "result": "failed to grow"},
      {"measurement": "motility of T. vaginallis", "setting": "[2]; strain C1, 50 μg/ml, RPMI+1% fetal calf serum, within a few minutes", "result": "became stationary"},
      {"measurement": "lysis of T. vaginallis", "setting": "[2]; strain C1, 50 μg/ml, over the ensuing 15-30 minutes", "result": "lysed"},
      {"measurement": "susceptibility of metronidazole-resistant clinical isolates", "setting": "[2]; strains MR and TV, 100 and 50 μg/ml", "result": "susceptible"},
      {"measurement": "residual antimicrobial activity against C. albicans, E. coli and L. monocytogenes after pepsin", "setting": "pepsin", "result": "fully retained"},
      {"measurement": "inhibition of growth of E. coli (FIG. 12a)", "setting": "E. coli ML-35P; absence of protease", "result": "equally effective"},
      {"measurement": "activity against E. coli in NaCl (FIG. 5b)", "setting": "E. coli ML-35P; in the presence of 100 mM NaCl", "result": "retain their activity"},
      {"measurement": "antibacterial activity against E. coli (FIG. 4a)", "setting": "E. coli ML-35P; [6]", "result": "more effective against E. coli ML-35P than HNP-1 and only slightly less effective than NP-1"},
      {"measurement": "degradation by human leukocyte elastase", "setting": "human leukocyte elastase", "result": "not degraded"},
      {"measurement": "activity against C. albicans in NaCl (FIG. 5a)", "setting": "C. albicans, strain 820; in the presence of 100 mM NaCl", "result": "retain their activity"},
      {"measurement": "antifungal activity against Candida albicans (FIG. 4c)", "setting": "C. albicans, strain 820; [6]", "result": "effective"},
      {"measurement": "inhibition of growth of L. monocytogenes (FIG. 12d)", "setting": "[3]; absence of proteases", "result": "comparably active"},
      {"measurement": "inhibition of growth of L. monocytogenes (FIG. 12c)", "setting": "[3]; presence of trypsin, chymotrypsin", "result": "adversely affected"},
      {"measurement": "antibacterial activity against Listeria monocytogenes (FIG. 4b)", "setting": "[3]; [6]", "result": "effective"},
      {"measurement": "Activity against human STD pathogens: Neisseria gonorrhoeae", "setting": "[4]", "result": "Active"},
      {"measurement": "antibacterial activity against S. aureus (FIG. 4d)", "setting": "Staphylococcus aureus", "result": "inhibit the growth"},
      {"measurement": "Activity against human STD pathogens: HIV-1", "setting": "HIVJR-CSF and HIVJR-FL", "result": "Active"},
      {"measurement": "antiviral activity by time of addition", "setting": "HIVJR-CSF and HIVJR-FL; 2 hours prior to virus, at the time of virus, or 2 hours after infection", "result": "showed antiviral activity"},
      {"measurement": "antiviral activity by time of addition", "setting": "HIVJR-CSF and HIVJR-FL; added 24 hours after infection", "result": "no antiviral activity"},
      {"measurement": "gel formation in LAL test", "setting": "[5]; 1.0 μg peptide in 0.2 ml", "result": "no gel"},
      {"measurement": "gel formation in LAL test, cyclic vs linearalized (Table 3)", "setting": "[5]; 2.5 μg peptide", "result": "no gel"},
      {"measurement": "gel formation in LAL test", "setting": "[5]; 2.5 μg peptide in 0.2 ml", "result": "no gel"},
      {"measurement": "gel formation in LAL test, cyclic vs linearalized (Table 3)", "setting": "[5]; 5 μg peptide", "result": "no gel"},
      {"measurement": "gel formation in LAL test", "setting": "[5]; 5 μg peptide in 0.2 ml", "result": "no gel"},
      {"measurement": "gel formation in LAL test", "setting": "[5]; 10 μg peptide in 0.2 ml", "result": "no gel"},
      {"measurement": "antibacterial activity against K. pneumoneae (FIG. 4e)", "setting": "K. pneumoneae 270", "result": "inhibit the growth"}
    ]}
  ]
}
